Results as given in patent US8258177B2, “4-((phenoxyalkyl)thio)-phenoxyacetic acids and analogs” (Janssen Pharmaceutica, N.V., priority 2003, dated 2012).
“And” between values parts separate entries of the source, which are not always exact repeats. Equal values may be shown once. Read-outs that look alike come from different tables or passages of the source.

Key:
[1] = target: T1, PPAR delta (Homo sapiens, UniProt Q03181); assay: Transfection assay for PPAR receptors (PPAR-Gal4 / Gal4-Luciferase reporter in HEK293 cells); assay type: cell-based; conditions: multiple values = multiple measurements
T1 sequence (Q03181 211-441 limits assumed): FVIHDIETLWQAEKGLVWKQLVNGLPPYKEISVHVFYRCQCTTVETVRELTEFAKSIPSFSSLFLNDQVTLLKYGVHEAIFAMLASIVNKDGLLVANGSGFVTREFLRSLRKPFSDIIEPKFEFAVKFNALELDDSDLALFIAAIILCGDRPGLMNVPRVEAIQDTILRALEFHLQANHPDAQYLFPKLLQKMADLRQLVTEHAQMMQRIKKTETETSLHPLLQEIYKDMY
Procedure: Transfection Assay Method for PPAR Receptors
HEK293 cells were grown in DMEM/F-12 Media supplemented with 10% FBS and glutamine (GIBCOBRL). The cells were co-transfected with DNA for PPAR-Gal4 (PPARα, γ or δ) receptor and Gal4-Luciferase Reporter using the DMRIE-C Reagent. On the following day, the medium was replaced with 5% Charcoal treated FBS growth medium. After six hours, cells were trypsinized and seeded at a density of 50,000 cell/well into 96 well plates and incubated overnight at 37° C. in a 5% CO2 incubator. Cells were then treated with test compounds or vehicle and incubated for 24 hours at 37° C. in a 5% CO2 incubator. Luciferase activity was assayed using the Steady-Glo Luciferase Assay Kit from Promega. […] Steady-Glo Luciferase Assay Kit was purchased from Promega Part# E254B.

[2] = system: differentiated THP-1 monocytes; conditions: cited from earlier work
[3] = HEK293 cells co-transfected with PPAR-Gal4 receptor and Gal4-Luciferase reporter, 24 hours, read-out: EC50 (PPAR delta)
[4] = value printed in running text after characterisation data, read-out: PPARdleta EC50

Structure (SMILES) | EC50 [1, 3] | further results
CCCC(CCC)(COc1ccc(C(F)(F)F)cc1)CSc1ccc(OCC(=O)O)c(C)c1 [Compound 24, {2-Methyl-4-[2-propyl-2-(4-trifluoromethyl-phenoxymethyl)-pentylsulfanyl]phenoxy}-acetic acid] | 0.0097 µM and 0.0074 µM | 
C=C(COc1ccc(C(F)(F)F)cc1)C[S+]([O-])c1ccc(OCC(=O)O)c(C)c1 (centres unmarked) [[2-methyl-4-[[2-[[4-(trifluoromethyl)phenoxy]methyl]-2-propenyl]sulfinyl]phenoxy]-acetic acid] |  | EC50 [1, 4]: > 3 µM
C=C(COc1ccc(C(F)(F)F)cc1)CSc1ccc(Cl)cc1OCC(=O)O [[5-chloro-2-[[2-[[4-(trifluoromethyl)phenoxy]methyl]-2-propenyl]thio]phenoxy]-acetic acid] |  | EC50 [1, 4]: > 3 µM
C=C(COc1ccccc1)CSc1ccc(OCC(=O)O)c(C)c1 [Compound 3, [2-Methyl-4-(2-phenoxymethyl-allylsulfanyl)-phenoxy]-acetic acid] | 0.711 µM | 
C=C(COc1ccc(Cl)c(Cl)c1)CSc1ccc(OCC(=O)O)c(C)c1 [Compound 6, {4-[2-(3,4-Dichloro-phenoxymethyl)-allylsulfanyl]-2-methyl-phenoxy}-acetic acid] | 0.0566 µM and 0.0429 µM | 
C=C(COc1ccc(C(C)=O)c(O)c1CCC)CSc1ccc(OCC(=O)O)c(C)c1 [{4-[2-(4-acetyl-3-hydroxy-2-propyl-phenoxymethyl)-allylsulfanyl]-2-methyl-phenoxy}-acetic acid] |  | EC50 [1, 4]: 0.013 µM and 0.018 µM
C=C(COc1ccc(C(F)(F)F)cc1)CSc1ccc(CC(=O)O)cc1Cl [Compound 22, {3-Chloro-4-[2-(4-trifluoromethyl-phenoxymethyl)-allylsulfanyl]-phenyl}-acetic acid] | 0.0289 µM and 0.0683 µM | 
C=C(COc1ccc(Cl)cc1Cl)CSc1ccc(OCC(=O)O)c(C)c1 [Compound 7, {4-[2-(2,4-Dichloro-phenoxymethyl)-allylsulfanyl]-2-methyl-phenoxy}-acetic acid] | 0.138 µM | 
C=C(COc1ccc(OC)cc1)CSc1ccc(OCC(=O)O)c(C)c1 [Compound 9, {4-[2-(4-Methoxy-phenoxymethyl)-allylsulfanyl]-2-methyl-phenoxy}-acetic acid] | 0.216 µM | 
Cc1cc(SCc2sc(-c3ccc(C(F)(F)F)cc3)nc2C)ccc1OCC(=O)O [GW501516] |  | ABCA1 mRNA expression [2]: induced ABCA1 mRNA expression; cholesterol efflux [2]: enhanced cholesterol efflux
C=C(COc1ccc(Cl)cc1)CSc1ccc(OCC(=O)O)c(C)c1 [Compound 5, {4-[2-(4-Chloro-phenoxymethyl)-allylsulfanyl]-2-methyl-phenoxy}-acetic acid] | 0.0792 µM and 0.0518 µM | 
Cc1cc(SCC2(COc3ccc(C(F)(F)F)cc3)COC(C)(C)O2)ccc1OCC(=O)O (centres unmarked) [Compound 27, {4-[2,2-Dimethyl-4-(4-trifluoromethyl-phenoxymethyl)-[1,3]dioxolan-4-ylmethylsulfanyl]-2-methyl-phenoxy}-acetic acid] | 0.119 µM | 
C=C(COc1ccc(C(F)(F)F)cn1)CSc1ccc(OCC(=O)O)c(C)c1 [[2-methyl-4-[[2-[[[5-(trifluoromethyl)-2-pyridinyl]oxy]methyl]-2-propenyl]thio]phenoxy]-acetic acid] |  | EC50 [1, 4]: > 3 µM
C=C(COc1ccc(N(C)C)cc1)CSc1ccc(OCC(=O)O)c(C)c1 [Compound 10, {4-[2-(4-Dimethylamino-phenoxymethyl)-allylsulfanyl]-2-methyl-phenoxy}-acetic acid] | 0.238 µM | 

Continued, in another order:

EC50 [1, 3] | Structure (SMILES) | further results
0.122 µM | CCC(O)(COc1ccc(C(F)(F)F)cc1)CSc1ccc(OCC(=O)O)c(C)c1 (centres unmarked) [Compound 28, {4-[2-Hydroxy-2-(4-trifluoromethyl-phenoxymethyl)butylsulfanyl]-2-methyl-phenoxy}-acetic acid] | 
0.194 µM | C=C(CCSc1ccc(OCC(=O)O)c(C)c1)Oc1ccc(C(F)(F)F)cc1 [Compound 20, {2-Methyl-4-[3-(4-trifluoromethyl-phenoxy)-but-3-enylsulfanyl]phenoxy}-acetic acid] | 
0.0451 µM and 0.0483 µM | C=C(COc1ccc(C(F)(F)F)cc1)CSc1ccc(OCC(=O)O)c(Cl)c1 [Compound 11, {2-Chloro-4-[2-(4-trifluoromethyl-phenoxymethyl)-allylsulfanyl]-phenoxy}-acetic acid] | 
0.029 µM and 0.0278 µM | C=C(COc1ccc(OC(F)(F)F)cc1)CSc1ccc(OCC(=O)O)c(C)c1 [Compound 4, {2-Methyl-4-[2-(4-trifluoromethoxy-phenoxymethyl)-allylsulfanyl]-phenoxy}-acetic acid] | 
0.0227 µM and 0.0221 µM | CC(C)=C(COc1ccc(C(F)(F)F)cc1)CSc1ccc(OCC(=O)O)c(C)c1 [Compound 15, {2-Methyl-4-[3-methyl-2-(4-trifluoromethyl-phenoxymethyl)-but-2-enylsulfanyl]-phenoxy}-acetic acid] | 
> 1 µM | C=C(CSc1ccc(OCC(=O)O)c(C)c1)Oc1ccc(C(F)(F)F)cc1 [Compound 21, {2-Methyl-4-[2-(4-trifluoromethyl-phenoxy)-allylsulfanyl]-phenoxy}-acetic acid] | 
0.0321 µM and 0.0387 µM | Cc1cc(SCC(=CC#N)COc2ccc(C(F)(F)F)cc2)ccc1OCC(=O)O [Compound 17, {4-[3-Cyano-2-(4-trifluoromethyl-phenoxymethyl)-allylsulfanyl]-2-methyl-phenoxy}-acetic acid] | 
0.0878 µM and 0.0514 µM | Cc1cc(SCC(COc2ccc(C(F)(F)F)cc2)=C(F)F)ccc1OCC(=O)O [Compound 16, {4-[3,3-Difluoro-2-(4-trifluoromethyl-phenoxymethyl)-allylsulfanyl]-2-methyl-phenoxy}-acetic acid] | 
0.249 µM | C=C(COc1ccc(C(F)(F)F)cc1)COc1ccc(OCC(=O)O)c(C)c1 [Compound 29] | 
0.0677 µM and 0.0497 µM | Cc1cc(SCC(=Cc2cccc3ccccc23)COc2ccc(C(F)(F)F)cc2)ccc1OCC(=O)O [Compound 19, {2-Methyl-4-[3-naphthalen-1-yl-2-(4-trifluoromethyl-phenoxymethyl)-allylsulfanyl]-phenoxy}-acetic acid] | 
0.147 µM | Cc1cc(SCC(F)(F)COc2ccc(C(F)(F)F)cc2)ccc1OCC(=O)O [Compound 25, {4-[2,2-Difluoro-3-(4-trifluoromethyl-phenoxy)-propylsulfanyl]-2-methyl-phenoxy}-acetic acid] | 
